# Laboratory results reported in PMC8252719, “Macrocyclic FKBP51 Ligands Define a Transient Binding Mode with Enhanced Selectivity” (Angewandte Chemie (International Ed. in English), 2021).
# Where two headings read alike, the source gives them in different places.
# Columns and labels:
# FKBP51FK1 [1] = biological target: T1, FKBP51FK1 (Homo sapiens, UniProt Q13451); test: competitive fluorescence polarization assay, FKBP51FK1; format: binding; settings: ± = standard error from three independent measurements [b] or error from two independent measurements [d], read-out: FKBP51FK1 K i
# T1 sequence (Q13451 42-130 limits assumed): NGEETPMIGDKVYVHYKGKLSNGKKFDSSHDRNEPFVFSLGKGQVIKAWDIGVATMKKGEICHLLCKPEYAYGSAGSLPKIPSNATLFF
# Method: Table S1. Ki values were determined by a competitive fluoresc ence polarization assay.
# 4.1 Binding curves of 13a, c and d […]
# FKBP12 = FKBP12 (Homo sapiens, UniProt P62942); test: competitive fluorescence polarization assay, FKBP12; format: binding; settings: for Ki: competitive fluorescence polarization assay, >80 μM = highest measurable concentration before compound precipitation, ± = standard error from three independent measurements, read-out: FKBP12 K i
# FKBP12.6 = FKBP12.6 (Homo sapiens, UniProt P68106); test: competitive fluorescence polarization assay, FKBP12.6; format: binding; settings: for Ki: competitive fluorescence polarization assay, >80 μM = highest measurable concentration before compound precipitation, ± = standard error from three independent measurements, read-out: FKBP12.6 K i
# FKBP51FK1 [2] = biological target: T1, FKBP51FK1; test: isothermal titration calorimetry (ITC); format: binding
# Method: 1. ITC of compounds 13a and 13d
# Figure S1. A) Binding of compound 13a to FKBP51FK1 determined by isothermal titration calorimetry at 25 °C. A 20 µM solution FKBP51FK1 formulated in 20 mM
# HEPES pH 8.0, 20 mM NaCl, 5% glycerol and 2% DMSO was placed in the sample cell of a PEAK-ITC instrument. The syringe was filled with a 200 µM solution of
# 13a formulated in the same buffer. After equilibration the compound was titrated into the sample cell by 12 injection s of 3 µl each. The obtained data was analyzed
# Binding of compound 13d to FKBP51FK1 determined by isothermal titration calorimetry at 25 °C. A 13 µM solution FKBP51FK1 formulated in 20 mM HEPES pH
# 8.0, 20 mM NaCl, 5% glycerol and 2% DMSO was placed in the sample cell of a PEAK -ITC instrument. The syringe was filled with a 10 0 µM solution of 13d
# formulated in the same buffer. After equilibration the compound was titrated into the sample cell by 12 injections of 3 µl each. The obtained data was analyzed using […]
# [3] = test system: IKKα phosphorylation in SIM-A9 cells; test: IKKα inhibition in SIM-A9 cells (Western blot); format: cell-based, murine; settings: for concentration at which apparent maximal inhibition of IKKα phosphorylation was already reached: SIM-A9 cells, lowest tested concentration; for inhibition of IKKα phosphorylation (in words) / dose-dependence of inhibition of IKKα phosphorylation: murine microglia SIM-A9 cells, 16 h treatment, Western blot; for inhibition of IKKα phosphorylation (in words): three (macrocycles) or six (SAFit) independent cellular assays
# Method: We next explored if the macrocyclic ligands could interfere with the cellular functions of FKBP51. We therefore treated SIM‐A9 cells, which were recently discovered as a SAFit‐sensitive cellular model for stress‐mediated secretory autophagy. ^[24] […] (Figure 2 F and S6C). […]
# 5.2 IKKα inhibition in SIM-A9 cells
# Cell culture and treatments
# Murine microglia SIM-A9 cells were cultured at 37 °C, 5% CO2 in Dulbecco's Modified Eagle Medium (DMEM) high glucose with GlutaMAX (Thermo Fisher Scientific, 10566016), supplemented with 1 mM sodium pyruvate (Thermo Fisher Scientific, 11360-070), 10% fetal bovine serum (PAN Biotech, P30-8500), and 1% antibiotic-antimycotic (Thermo Fisher Scientific, 15240-062).
# For the preparation of whole-cell lysates, confluent SIM-A9 cell cultures treated with the indicated compounds for 16 h in the above mentioned growth medium, were washed two times with ice-cold DPBS (Thermo Fisher Scientific, 14190-144) and lysed in an appropriate volume of RIPA buffer (Thermo Fisher Scientific, 89901), freshly supplemented with 1x cOmplete™ EDTA-free protease inhibitor cocktail (Roche, 4693132001) and 1x PhosSTOP™ phosphatase inhibitor cocktail (Roche, 4906837001) for 20 min on ice.
# Subsequently, samples were centrifuged for 10 min at 4°C at 13000 rpm. The resulting supernatants were transferred to new 1.5 ml reaction tubes and prepared for separation with an SDS-PAGE system and analyzed by immunoblotting.
# SDS-PAGE and immunoblotting
# Separation of proteins was performed with the Criterion™ Vertical Electrophoresis Cell System (Bio-Rad, 1656001) on 4–20% Criterion™ TGX™ Precast Midi Protein Gels (Bio-Rad, 5671095). Immunoblotting was performed with the Trans-Blot Turbo Transfer System (Bio-Rad, 1704150) on 0.2 µm PVDF Trans-Blot Turbo Transfer Membranes (Bio-Rad, 1704157). For immunodetection, membranes were placed in TBS, supplemented with 0.05% Tween (Sigma-Aldrich, P9416) and 5% non-fat milk (Carl Roth, T145.1) for 1 h at RT and then incubated with the primary antibody diluted in TBS-T overnight at 4°C. Following primary antibodies were used:
# Phospho-IKKα S176/phospho-IKKβ S177 (1:1000, Cell Signaling Technology, 2078), IKKα (1:1000, Cell Signaling Technology, 1682) and GAPDH (1:1000, Cell Signaling Techology, 5174).
# Then, immunoblots were washed and probed with horseradish peroxidase- conjugated secondary antibody (1:10000, Cell Signaling Technology, 7074) for 1 h at RT. Immunoreactive protein bands were visualized using Clarity Western ECL Substrate (Bio-Rad, 1705061) or Clarity Max Western ECL Substrate (Bio-Rad, 1705062). Determination of the band intensities was performed with […]
# [4] = fluorescence polarization assay
# FKBP12.6, sequence (P68106 whole entry): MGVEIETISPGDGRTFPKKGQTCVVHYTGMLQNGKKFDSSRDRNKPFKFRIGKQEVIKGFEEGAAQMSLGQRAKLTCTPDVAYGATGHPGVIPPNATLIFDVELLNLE
# FKBP12, sequence (P62942 whole entry): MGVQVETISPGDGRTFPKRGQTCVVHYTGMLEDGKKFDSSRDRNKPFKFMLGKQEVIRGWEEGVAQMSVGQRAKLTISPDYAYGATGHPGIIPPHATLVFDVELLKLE
SMILES,Ki (FKBP51FK1 [1]),Ki (FKBP12),Ki (FKBP12.6),inhibition of IKKα phosphorylation (in words) [3],also measured
COc1ccc(CCC2OC(=O)C3CCCCN3C(=O)C(C3CCCCC3)CC(O)C(O)COCCOc3cccc2c3)cc1OC (mixture of isomers) [9 g],1.2 µM,–,–,–,binding to FKBP12 (in words) (FKBP12; [4]): did not bind; binding to FKBP12.6 (in words) (FKBP12.6; [4]): did not bind
COc1ccc(CC[C@H]2OC(=O)[C@@H]3CCCCN3C(=O)[C@@H](C3CCCCC3)NC(=O)CNC(=O)COc3cccc2c3)cc1OC [13 a],–,> 80 µM,> 80 µM,–,"Ki (FKBP51FK1 [1]; SEM): 2.3 ± 0.05 µM; Kd (FKBP51FK1 [2]; 25 °C, 20 mM HEPES pH 8.0, 20 mM NaCl, 5% glycerol, 2% DMSO, one-site binding model, mean ± SD from 3 independent experiments, SD, read-out: Kd-value for FKBP51FK1 by ITC): 3.6 ± 0.9 µM; Kd (FKBP51FK1 [2]; isothermal calorimetry, enthalpy-driven, read-out: K d for FKBP51 by ITC): 3.6 µM"
"COc1ccc(CC[C@H]2OC(=O)[C@@H]3CCCCN3C(=O)[C@@H](C3CCCCC3)NC(=O)[C@@H](C)NC(=O)COc3cccc2c3)cc1OC [13 b, (2R,5S,12R,15R)-12-cyclohexyl-2-[2-(3,4-dimethoxyphenyl)ethyl]-15-methyl-3,19-dioxa-10,13,16-triazatricyclo[18.3.1.0⁵,¹⁰]tetracosa-1(24),20,22-triene-4,11,14,17-tetrone]",–,> 80 µM,> 80 µM,–,–
COc1ccc(CC[C@H]2OC(=O)[C@@H]3CCCCN3C(=O)[C@@H](C3CCCCC3)NC(=O)C(C)(C)NC(=O)COc3cccc2c3)cc1OC [13 c],–,> 80 µM,> 80 µM,inhibited,Ki (FKBP51FK1 [1]; SEM): 0.29 ± 0.05 µM; concentration at which apparent maximal inhibition of IKKα phosphorylation was already reached [3]: ≤ 1 µM
"COc1ccc(CC[C@@H](OC(=O)[C@@H]2CCCCN2C(=O)[C@H](c2cc(OC)c(OC)c(OC)c2)C2CCCCC2)c2cccc(OCC(=O)O)c2)cc1OC [SAFit1, reference compound]",–,–,–,inhibited,Ki (FKBP51FK1 [1]; SEM): 0.004 ± 0.001 µM; Ki (FKBP12; SEM): 0.163 ± 0.009 µM; Ki (FKBP12.6; SEM): 0.019 ± 0.002 µM; dose-dependence of inhibition of IKKα phosphorylation [3]: clear dose‐dependence
"COc1ccc(CC[C@@H](OC(=O)[C@@H]2CCCCN2C(=O)[C@H](c2cc(OC)c(OC)c(OC)c2)C2CCCCC2)c2cccc(OCCN3CCOCC3)c2)cc1OC [SAFit2, reference compound]",–,–,–,inhibited,dose-dependence of inhibition of IKKα phosphorylation [3]: clear dose‐dependence

# Further lines, with some results ahead:
Ki (FKBP51FK1 [1]),Ki (FKBP12),Ki (FKBP12.6),SMILES,inhibition of IKKα phosphorylation (in words) [3],also measured
0.4 µM,> 80 µM,> 80 µM,COc1ccc(CC[C@H]2OC(=O)[C@@H]3CCCCN3C(=O)[C@@H](C3CCCCC3)NC(=O)C3(CCC3)NC(=O)COc3cccc2c3)cc1OC [13 e],inhibited,dose-dependence of inhibition of IKKα phosphorylation [3]: clear dose‐dependence
1.3 µM,> 80 µM,> 80 µM,COc1ccc(CC[C@H]2OC(=O)[C@@H]3CCCCN3C(=O)[C@@H](C3CCCCC3)NC(=O)C3(CCCC3)NC(=O)COc3cccc2c3)cc1OC [13 f],–,–
3.1 µM,> 80 µM,> 80 µM,COc1ccc(CC[C@H]2OC(=O)[C@@H]3CCCCN3C(=O)[C@@H](C3CCCCC3)NC(=O)CN(C)C(=O)COc3cccc2c3)cc1OC [13 g],–,–
0.37 µM,> 80 µM,> 80 µM,COc1ccc(CC[C@H]2OC(=O)[C@@H]3CCCCN3C(=O)[C@@H](C3CCCCC3)NC(=O)C(C)(C)N(C)C(=O)COc3cccc2c3)cc1OC [13 h],inhibited,concentration at which apparent maximal inhibition of IKKα phosphorylation was already reached [3]: ≤ 1 µM
–,> 80 µM,> 80 µM,"COc1ccc(CC[C@H]2OC(=O)[C@@H]3CCCCN3C(=O)[C@@H](C3CCCCC3)NC(=O)[C@H]3CCCN3C(=O)COc3cccc2c3)cc1OC [13 i, (9R,12R,19S,22R)-12-cyclohexyl-22-[2-(3,4-dimethoxyphenyl)ethyl]-2,21-dioxa-5,11,14-triazatetracyclo[21.3.1.0⁵,⁹.0¹⁴,¹⁹]heptacosa-1(26),23(27),24-triene-4,10,13,20-tetrone]",inhibited,dose-dependence of inhibition of IKKα phosphorylation [3]: clear dose‐dependence
–,> 80 µM,> 80 µM,"COc1ccc(CC[C@H]2OC(=O)[C@@H]3CCCCN3C(=O)[C@@H](C3CCCCC3)NC(=O)[C@H](C)NC(=O)COc3cccc2c3)cc1OC [13 j, (2R,5S,12R,15S)-12-cyclohexyl-2-[2-(3,4-dimethoxyphenyl)ethyl]-15-methyl-3,19-dioxa-10,13,16-triazatricyclo[18.3.1.0⁵,¹⁰]tetracosa-1(24),20,22-triene-4,11,14,17-tetrone]",–,–
–,> 80 µM,> 80 µM,"COc1ccc(CC[C@H]2OC(=O)[C@@H]3CCCCN3C(=O)[C@@H](C3CCCCC3)NC(=O)[C@@H]3CCCN3C(=O)COc3cccc2c3)cc1OC [13 k, (9S,12R,19S,22R)-12-cyclohexyl-22-[2-(3,4-dimethoxyphenyl)ethyl]-2,21-dioxa-5,11,14-triazatetracyclo[21.3.1.0⁵,⁹.0¹⁴,¹⁹]heptacosa-1(26),23(27),24-triene-4,10,13,20-tetrone]",–,–
7.4 µM,> 80 µM,> 80 µM,COc1ccc(CC[C@H]2OC(=O)[C@@H]3CCCCN3C(=O)[C@@H](C3CCCCC3)NC(=O)CCNC(=O)COc3cccc2c3)cc1OC [13 l],–,–
